{"source": "patent US20250161312A1", "about": "“A METHOD FOR THE TREATMENT OF CHEMOTHERAPEUTIC DRUG-INDUCED NEPHROTOXICITY” (INSTITUT NATIONAL DE LA SANTÉ ET DE LA RECHERCHE MÉDICALE, priority 2022, published 2025)", "key": {"[1]": {"details": "both in vitro and in vivo; cited from earlier work"}, "A1 receptor": {"biological_target": "T1, A1 receptor (Rattus norvegicus, UniProt P25099)", "T1 construct": "host or cells: rodent (rat) in vivo models", "T1 sequence (P25099 1-326)": "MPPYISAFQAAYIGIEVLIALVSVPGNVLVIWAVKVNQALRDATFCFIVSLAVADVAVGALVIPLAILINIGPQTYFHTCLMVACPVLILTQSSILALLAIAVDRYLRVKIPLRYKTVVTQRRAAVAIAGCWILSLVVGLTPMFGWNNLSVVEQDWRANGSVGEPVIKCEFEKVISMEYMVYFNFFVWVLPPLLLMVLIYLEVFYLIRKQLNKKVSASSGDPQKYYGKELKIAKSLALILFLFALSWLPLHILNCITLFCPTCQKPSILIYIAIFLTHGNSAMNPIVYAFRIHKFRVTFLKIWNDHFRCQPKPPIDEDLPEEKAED", "details": "rodent models, blockade of A1 receptor; cited from earlier work"}, "kidney transcriptome": {"system": "kidney transcriptome", "assay": "RNA-Seq of kidney, sub-chronic protocol", "format": "in vivo, mice", "details": "adjusted p-value<0.01, log 2 fold change±1", "procedure": "RNA-seq libraries (n=5-6/group) were generated from 500 ng of total RNA using Illumina® TruSeq® Stranded mRNA Library Prep Kit v2. Briefly, following purification with poly-T oligo attached magnetic beads, the mRNA was fragmented using divalent cations at 94° C. for 2 min. The cleaved RNA fragments were copied into first-strand cDNA using reverse transcriptase and random primers. Strand specificity was achieved by replacing dTTP with dUTP during the second-strand cDNA synthesis by DNA polymerase I and RNase H. Following the addition of a single “A” base and the subsequent ligation of the adapter on double-stranded cDNA fragments, the products were purified and enriched with PCR [30 s at 98° C.; (10 s at 98° C., 30 s at 60° C., 30 s at 72° C.)×12 cycles; 5 min at 72° C.] to create the cDNA library. Surplus PCR primers were further removed by purification using AMPure XP beads (Beckman Coulter), and the final cDNA libraries were checked for quality and quantified using capillary electrophoresis. Sequencing was performed on the Illumina® Genome Hiseq4000 as single-end 50 base reads following Illumina's instructions. Reads were mapped onto the mm 10 assembly of Mus musculus genome using STAR v2.5.3a (72). Only uniquely aligned reads were kept for further analyses. Quantification of gene expression was performed using HTSeq-count v0.6.1p1 (73) and gene annotations from Ensembl releases 90 and 102 and “union” mode. Read counts were normalized across libraries with the method proposed by Ander et al. (74). Comparisons of interest were performed using the test for differential expression proposed by Love et al. (75) and implemented in the DESeq2 Bioconductor library (v1.16.1). Resulting p-values were adjusted for multiple testing using the Benjamini and Hochberg method (76). RNA-sequencing was performed by Plateforme GenomEast, Institut de Génétique et de Biologie Moléculaire et Cellulaire, UMR 7104 CNRS-UdS/INSERM U964 (Illkirch, France). Sequencing data that support the findings of this study have been deposited in GEO with the primary accession code GSE179247. […]"}, "C57BL6/J mice": {"system": "C57BL6/J mice", "assay": "Sub-chronic cisplatin-induced kidney injury model", "format": "in vivo", "details": "cisplatin 3 mg/kg for six days", "procedure": "FIG. 1. Schematic representation of the different animal procedures. (A) Acute cisplatin-induced kidney injury. […] (B) Sub-chronic cisplatin-induced kidney injury. […] (C) KW-6002 administration schedule in the acute model. […] (D) KW-6002 administration schedule in the sub-chronic model.\nAnimal experiments were adapted from 63-64. Animal procedures were performed in 8 to 10 weeks old male C57B16/J mice (Janvier Labs). Mice were fed a laboratory standard diet with water and food ad libitum and were kept under constant environmental conditions with a 12-hour light-dark cycle. Istradefylline (KW-6002; Tocris) was dissolved in a carrier solution consisting in 15% DMSO, 15% cremophor (Sigma), 70% saline solution (vehicle). Cisplatin (Accord Healthcare) was dissolved in saline solution. […] Three days after this single injection, animals were sacrificed by cervical dislocation (FIG. 1A).\nPrior sacrifice by cervical dislocation, retro-orbital blood samples were collected in heparinized tubes and centrifuged for 10 min at 2000 rpm at room temperature. Renal function was assessed by Blood urea nitrogen (BUN) measurement using a AU480 Chemistry Analyzer (Beckman Coulter). At the time of sacrifice, kidneys or LLC1 tumors were harvested and stored in either “RNA later” solution (Thermo Fisher), 4% neutral buffered formalin or snap-frozen in liquid nitrogen.\nFormalin-fixed and paraffin-embedded sections (3 μm thick) were stained with Hematoxylin and Eosin (Sigma Aldrich) or Periodic Acid-Schiff (Sigma-Aldrich). Slices were scored by a nephropathologist in a blinded manner. A kidney injury score grading scale from 0 to 5 was used to assess the severity of the injury as follow: 0=no lesions, 1=minimal injury characterized by occurrence of necrosis and debris; 2=mild injury with single cell necrosis, pyknotic cells, and apoptosis; 3=moderate injury characterized by tubular distension, vacuolation, and some cellular debris, 4=severe injury with occasional hyaline casts observed, patchy epithelial necrosis in all segments, loss of epithelial lining; and 5=very severe injury characterized by extensive tubular epithelial necrosis in all segments, loss of epithelial layer from many tubules widespread intraluminal cellular debris, and frequent hyaline casts particularly prominent in the medullary region (67).\nTotal RNA from kidney samples was extracted with phenol/chloroform and subsequently precipitated in isopropanol as described previously (71). Total RNA from cultured renal cells was extracted using RNeasy Mini kit (Qiagen) following manufacturer's recommendations.\nReverse transcription was performed on 1 μg of RNA using high-capacity cDNA reverse transcription kit (Thermo Fisher), according the manufacturer's recommendation. Real time PCR was performed on a StepOne device using Taqman Gene Expression Master Mix (Thermo Fisher), following manufacturer's recommendations. […]"}, "kidney mouse sections": {"system": "kidney mouse sections", "assay": "Red Oil staining of kidney mouse sections", "format": "in vivo", "details": "cisplatin alone", "procedure": "FIG. 6. KW6002 alleviates the cisplatin-induced nephrotoxicity associated with apoptosis, lipid metabolism, and oxidative stress. (A) Tail moment assessed by comet assay; 50 cells/condition were analyzed. (B and C) KW6002 attenuates cisplatin-induced renal lipid accumulation, assessed by Red Oil staining. […] Results are the mean±SEM (n=6-9 mice/group). (F-H) KW6002 attenuated cisplatin-induced oxidative stress in RPTEC/hTERT1 cells. (F and G) Gene expression of Nrf2 (F) and HO1 (G). […] Results are the mean±SEM (n=3 independent experiments).\n10 μm frozen kidney mouse sections were fixed with ethanol (60%) then incubated for 15 min with Oil Red O Solution (Fisher Biotech) dissolved in isopropanol. After several washes with ddH2O, samples were incubated 3 min with hematoxylin. Lipid droplets are stained in red whereas nuclei appeared blue. […] RPTEC/hTERT cells were fixed with ethanol (60%) then incubated for 15 min with Oil Red O Solution. The cells were washed three times with ddH2O and incubated 3 min with hematoxylin. Coverslips were rinsed with H2O before mounting on microscope slides using glycerol gelatin aqueous slide mounting medium (Sigma). Quantifications were performed blindly using ImageJ software. […] The resulting red color images were quantified using a custom threshold (0.173 for RPTEC/hTERT cells and 0.140 for kidney stainings)."}, "mouse model": {"system": "mouse model", "assay": "MSX-3 in cisplatin-induced kidney injury mouse model", "format": "in vivo", "details": "vs. cisplatin", "from_the_text": "FIG. 9. […] (A) BUN quantification. (B) Gene expression of the inflammatory marker Tnfa."}}, "data": [{"smiles": "Cn1c(=O)c2c(ncn2C)n(C)c1=O", "note": "[caffeine]", "values": [{"measurement": "anti-tumoral effect of cisplatin", "setting": "[1]", "result": "potentiate the anti-tumoral effect of cisplatin"}]}, {"smiles": "CCCn1c(=O)c2[nH]c(C34CC5CC(CC3C5)C4)nc2n(CCC)c1=O", "note": "[KW-3902]", "values": [{"measurement": "protection against cisplatin nephrotoxicity", "setting": "A1 receptor", "result": "protective against cisplatin nephrotoxicity"}]}, {"smiles": "CCCn1c(=O)c2nc(C34CCC(CCC(=O)O)(CC3)CC4)[nH]c2n(CCC)c1=O", "note": "[tonapofylline]", "values": [{"measurement": "protection against cisplatin nephrotoxicity", "setting": "A1 receptor", "result": "protective against cisplatin nephrotoxicity"}]}, {"smiles": "CCCn1c(=O)c2[nH]c(C3CCCC3)nc2n(CCC)c1=O", "note": "[8-cyclopentyl-1,3-dipropylxanthine]", "values": [{"measurement": "protection against cisplatin nephrotoxicity", "setting": "A1 receptor", "result": "protective against cisplatin nephrotoxicity"}]}, {"smiles": "N.N.[Cl][Pt][Cl]", "note": "[cisplatin, cis-diamminedichloroplatinum (II)]", "values": [{"measurement": "genes downregulated in kidney", "setting": "kidney transcriptome", "result": 2299, "unit": "genes"}, {"measurement": "genes upregulated in kidney", "setting": "kidney transcriptome", "result": 2350, "unit": "genes"}, {"measurement": "genes whose expression is impacted in kidney", "setting": "kidney transcriptome", "result": 4649, "unit": "genes"}, {"measurement": "histological lesions", "setting": "C57BL6/J mice", "result": "severe histological lesions"}, {"measurement": "mRNA expression of Il6", "setting": "C57BL6/J mice", "result": "increased mRNA expression"}, {"measurement": "mRNA expression of Tnf", "setting": "C57BL6/J mice", "result": "increased mRNA expression"}, {"measurement": "mRNA levels of KIM-1", "setting": "C57BL6/J mice", "result": "significantly increased"}, {"measurement": "mRNA levels of NGAL", "setting": "C57BL6/J mice", "result": "significantly increased"}, {"measurement": "blood urea nitrogen (BUN) levels", "setting": "C57BL6/J mice; data not shown", "result": "increased blood urea nitrogen (BUN) levels"}, {"measurement": "lipid droplets in kidney", "setting": "kidney mouse sections", "result": "induced an accumulation of lipid droplets"}]}, {"smiles": "C#CCn1c(=O)c2c(nc(/C=C/c3cccc(OC)c3)n2C)n(CCCOP(=O)([O-])[O-])c1=O.[Na+].[Na+]", "note": "[MSX-3]", "values": [{"measurement": "BUN", "setting": "mouse model; FIG. 9A", "result": "significant reduction of BUN"}, {"measurement": "mRNA levels of Tnfα", "setting": "mouse model; FIG. 9B", "result": "lower mRNA levels of Tnfα"}]}]}
